Measurements: ChEMBL document CHEMBL1201862, “PubChem BioAssay data set” (2004)
Activity calls are given as the source filed them.

Legend:
[1] = biological target: T1, Heat shock factor protein 1 (Mus musculus, UniProt P38532); assay: inhibition of MG132-induced HSE-luciferase signal, confirmation, cell-based, NIH3T3, luminescence, dose retest (AID 2382); type: functional;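 note: NIH3T3 fibroblasts with HSF1-driven luciferase reporter stressed by proteasome inhibitor MG132; luminescence from HSF1-driven luciferase expression after 8 hours of MG132 stress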
T1 sequence (P38532 whole entry): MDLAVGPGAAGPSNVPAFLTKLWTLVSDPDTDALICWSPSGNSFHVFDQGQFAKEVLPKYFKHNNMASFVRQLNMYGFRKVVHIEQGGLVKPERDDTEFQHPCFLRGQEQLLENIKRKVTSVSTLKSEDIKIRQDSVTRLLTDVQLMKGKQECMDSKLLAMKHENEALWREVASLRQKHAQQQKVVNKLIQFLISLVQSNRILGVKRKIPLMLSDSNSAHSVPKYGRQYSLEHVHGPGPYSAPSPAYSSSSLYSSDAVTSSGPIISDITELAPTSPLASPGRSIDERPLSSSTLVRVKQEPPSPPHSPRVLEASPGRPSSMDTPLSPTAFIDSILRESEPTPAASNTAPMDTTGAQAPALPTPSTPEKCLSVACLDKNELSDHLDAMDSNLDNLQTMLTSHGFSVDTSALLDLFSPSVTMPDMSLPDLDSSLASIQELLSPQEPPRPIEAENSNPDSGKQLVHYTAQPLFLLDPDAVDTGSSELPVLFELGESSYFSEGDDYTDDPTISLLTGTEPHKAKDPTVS

[2] = biological target: T1, Heat shock factor protein 1; assay: HSF1 potentiators in luciferase reporter cells, confirmation, cell-based, NIH3T3, luminescence, dose retest (AID 435004); type: functional;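 note: stress induced by proteasome inhibitor MG132 added 30 min after compound; luciferase reporter driven by HSF1 response element in NIH3T3 cells; actives raise luminescence as potentiators of the MG132 stress response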
Cytochrome P450 2C9 = Cytochrome P450 2C9 (Homo sapiens, UniProt P11712)
Cytochrome P450 2C19 = Cytochrome P450 2C19 (Homo sapiens, UniProt P33261); assay: Cytochrome panel assay with activity outcomes. Panel member name: p450-cyp2c19 Compounds with AC50 equal or less than 10 uM are considered active; type: functional
Cytochrome P450 1A2 = biological target: T2, Cytochrome P450 1A2 (Homo sapiens, UniProt P05177);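 note: PubChem cytochrome P450 panel assay, CYP1A2 panel member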
T2 sequence (P05177 whole entry): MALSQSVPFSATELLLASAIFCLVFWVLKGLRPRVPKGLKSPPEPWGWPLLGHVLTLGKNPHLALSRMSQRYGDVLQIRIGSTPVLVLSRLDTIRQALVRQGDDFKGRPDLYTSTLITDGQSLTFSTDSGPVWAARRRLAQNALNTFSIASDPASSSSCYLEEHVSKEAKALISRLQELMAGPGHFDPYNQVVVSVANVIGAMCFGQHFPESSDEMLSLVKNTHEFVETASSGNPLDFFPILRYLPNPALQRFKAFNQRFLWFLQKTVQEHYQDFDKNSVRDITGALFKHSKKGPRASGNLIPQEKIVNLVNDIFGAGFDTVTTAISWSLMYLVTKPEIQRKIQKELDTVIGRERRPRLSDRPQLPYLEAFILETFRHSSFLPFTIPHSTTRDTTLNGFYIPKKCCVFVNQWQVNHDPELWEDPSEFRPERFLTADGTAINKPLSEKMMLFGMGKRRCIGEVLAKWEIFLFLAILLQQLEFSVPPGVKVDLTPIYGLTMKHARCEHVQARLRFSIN

Cytochrome P450 3A4 = Cytochrome P450 3A4 (Homo sapiens, UniProt P08684);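 note: CYP3A4 tested as one member of a cytochrome P450 panel screen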
[3] = Luminescence Cell-Based Dose Response HTS to Identify Activators of Luciferase Translation or Activity in H4 […] Cells. [Related pubchem assays: 1829 (Project Summary), 1814 (Primary HTS)]; type: functional
H4 = assay: Luminescence Cell-Based Dose Response HTS to Identify Activators of 5'UTR Stem-Loop Driven Prion Protein mRNA Translation in H4 Neuroglioblastoma Cells. [Related pubchem assays: 1829 (Project Summary), 1814 (Primary HTS)]; type: functional; conditions: Homo sapiens
[4] = Luminescence Cell-Based Dose Confirmation HTS to Identify Activators of 5'UTR Stem-Loop Driven Alpha-Synuclein mRNA Translation in H4 Neuroglioblastoma Cells. [Related pubchem assays: 1829 (Project Summary), 1814 (Primary HTS)]; type: functional

Cytochrome P450 2C9, sequence (P11712 whole entry): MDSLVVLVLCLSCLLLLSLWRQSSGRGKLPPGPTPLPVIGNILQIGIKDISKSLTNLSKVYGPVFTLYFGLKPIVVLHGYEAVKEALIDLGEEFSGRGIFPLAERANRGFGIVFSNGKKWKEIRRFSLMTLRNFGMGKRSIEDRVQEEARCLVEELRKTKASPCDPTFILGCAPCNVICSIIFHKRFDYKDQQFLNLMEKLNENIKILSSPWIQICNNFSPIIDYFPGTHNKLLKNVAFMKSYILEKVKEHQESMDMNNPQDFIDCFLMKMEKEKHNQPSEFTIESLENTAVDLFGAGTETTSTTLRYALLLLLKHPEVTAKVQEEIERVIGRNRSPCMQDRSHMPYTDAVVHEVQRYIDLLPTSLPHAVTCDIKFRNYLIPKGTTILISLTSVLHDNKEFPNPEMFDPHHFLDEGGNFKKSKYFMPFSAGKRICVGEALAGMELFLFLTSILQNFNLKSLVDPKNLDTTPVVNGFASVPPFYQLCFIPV
Cytochrome P450 2C19, sequence (P33261 whole entry): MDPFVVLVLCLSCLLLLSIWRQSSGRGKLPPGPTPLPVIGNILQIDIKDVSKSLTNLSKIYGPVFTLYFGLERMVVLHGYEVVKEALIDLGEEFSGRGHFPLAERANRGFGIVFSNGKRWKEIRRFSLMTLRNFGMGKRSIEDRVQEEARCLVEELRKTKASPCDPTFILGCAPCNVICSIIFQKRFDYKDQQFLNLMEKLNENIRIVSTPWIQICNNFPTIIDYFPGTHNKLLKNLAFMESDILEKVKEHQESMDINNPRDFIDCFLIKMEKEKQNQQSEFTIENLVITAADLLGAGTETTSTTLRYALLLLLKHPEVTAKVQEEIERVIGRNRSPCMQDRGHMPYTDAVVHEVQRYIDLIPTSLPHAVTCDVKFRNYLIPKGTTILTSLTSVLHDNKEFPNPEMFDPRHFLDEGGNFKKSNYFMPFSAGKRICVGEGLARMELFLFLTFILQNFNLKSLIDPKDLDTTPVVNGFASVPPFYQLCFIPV
Cytochrome P450 3A4, sequence (P08684 whole entry): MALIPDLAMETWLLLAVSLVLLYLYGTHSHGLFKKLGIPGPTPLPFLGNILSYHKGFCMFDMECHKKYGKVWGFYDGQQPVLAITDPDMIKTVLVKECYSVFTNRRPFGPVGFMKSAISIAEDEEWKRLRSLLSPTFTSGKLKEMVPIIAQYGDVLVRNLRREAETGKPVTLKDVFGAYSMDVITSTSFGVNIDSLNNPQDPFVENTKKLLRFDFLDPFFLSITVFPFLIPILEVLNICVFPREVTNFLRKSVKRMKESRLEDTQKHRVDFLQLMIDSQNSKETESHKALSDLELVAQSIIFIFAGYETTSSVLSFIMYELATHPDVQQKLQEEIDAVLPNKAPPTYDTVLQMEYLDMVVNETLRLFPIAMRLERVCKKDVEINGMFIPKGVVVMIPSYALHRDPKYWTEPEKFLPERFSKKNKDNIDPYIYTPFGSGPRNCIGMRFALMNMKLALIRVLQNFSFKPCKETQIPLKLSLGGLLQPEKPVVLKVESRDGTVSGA

COc1ccccc1C(=O)OCC(=O)c1cccc([N+](=O)[O-])c1
EC50 [1]: > 195 µM (not active)

OCCC1CN(Cc2cccc(-n3cccn3)c2)CCN1Cc1ccccc1 (stereo not given)
EC50 [1]: > 195 µM (not active)

COC(=O)c1cccc(N2C(=O)C3CC=CCC3C2=O)c1 (stereo not given)
EC50 [1]: > 100 µM (not active)

CCOC(=O)C1C(=O)OC(C)(C)C1C(C)C(=O)c1ccc(C)cc1C (stereo not given)
EC50 [2]: > 260 µM (inactive)

O=C(CCNC(=O)c1ccc(Cl)cc1)Nc1ncccc1O
EC50 [1]: > 195 µM (not active)

Cc1nc(Nc2ccccc2)sc1C
EC50 [1]: > 195 µM (not active)

O=C(CNC(=O)C1CCCCC1)OCC(=O)c1ccc(Br)cc1
EC50 [2]: > 260 µM (inactive)

Cn1sc(NC(=O)c2ccccc2Cl)nc1=O
AC50 (Cytochrome P450 2C9): 17.8 µM (inconclusive)

CCCC(C(=O)NCc1ccco1)N(C(=O)CNS(=O)(=O)c1ccc(Cl)cc1)C1CCCC1 (stereo not given)
EC50 [2]: > 260 µM (inactive)

O=C(Nc1cccc(Cl)c1)N(Cc1nc(O)c2ccccc2n1)C1CCCC1
EC50 [2]: > 260 µM (inactive)

Cc1cc(C)c(C#N)c(Oc2ccccc2)n1
AC50 (Cytochrome P450 2C19; read-out: AC50): 11.2 µM (inconclusive)

COC(=O)C1CSC(C(=O)OC)N1C(=O)Nc1c(C)cccc1C (stereo not given)
AC50 (Cytochrome P450 2C9): 25.1 µM (inconclusive)

Cc1ccc2c(c1)N(CC(=O)O)C(=O)CO2
EC50 [1]: > 195 µM (not active)

C=C1S/C(=N/c2ccccc2Cl)N(C(=O)c2sc3ccccc3c2Cl)C1(C)C
EC50 [2]: > 260 µM (inactive)

CC1(C)C(=O)C(c2ccccc2)=C2CN3C(=O)N(CCc4ccccc4)C(=O)C3(Cc3ccccc3)C=C21 (stereo not given)
AC50 (Cytochrome P450 1A2): 6.31 µM (inconclusive)
AC50 (Cytochrome P450 2C9): 12.6 µM (inconclusive)

O=C1CC(N2CCC(c3nc4ccccc4[nH]3)CC2)C(=O)N1c1ccccc1F (stereo not given)
EC50 [2]: > 260 µM (inactive)

COC(=O)c1cc(OC)c(OC)cc1NC(=S)NC(=O)c1ccco1
EC50 [2]: 28.2 µM (active)

CC(C)C(=O)N1c2ccccc2N=C2CCCC(O)=C2C1c1ccc(N(C)C)cc1 (stereo not given)
EC50 [1]: > 195 µM (not active)

COCCCNC(=O)C1CC(=O)N(Cc2ccc(OC)cc2)C1 (stereo not given)
AC50 (Cytochrome P450 3A4): 20 µM (inconclusive)
AC50 (Cytochrome P450 2C19; read-out: AC50): 22.4 µM (inconclusive)

COc1cccc(Nc2ncc3nc(-c4ccccc4)c(=O)n(C4CC4)c3n2)c1
AC50 (Cytochrome P450 2C9): 10 µM (inconclusive)

O=C(OCc1nc2ccccc2s1)C1CCN(C2=NS(=O)(=O)c3ccccc32)CC1
EC50 [3]: 24.8 µM (active)
EC50 (H4): 21.9 µM (active)
EC50 [4]: 24 µM (active)

COC(=O)C1=C(C)N(Cc2ccco2)C(=O)C1
EC50 [1]: > 195 µM (not active)

O=[N+]([O-])c1cccc(/C(=N/N=C/c2ccccc2Br)C23CN4CN(CN(C4)C2)C3)c1
AC50 (Cytochrome P450 1A2): 22.4 µM (inconclusive)
AC50 (Cytochrome P450 3A4): 31.6 µM (inconclusive)
AC50 (Cytochrome P450 2C9): 35.5 µM (inconclusive)
AC50 (Cytochrome P450 2C19; read-out: AC50): 14.1 µM (inconclusive)

CC1CCN(C(=O)Cn2nnc(-c3cccs3)n2)CC1
EC50 [3]: 59.7 µM (active)
EC50 (H4): 23.4 µM (active)
EC50 [4]: 4.67 µM (active)

O=C(c1ccc(Oc2ccc(C(F)(F)F)cn2)cc1)N1CCN(c2ccccc2)CC1
AC50 (Cytochrome P450 3A4): 14.1 µM (inconclusive)
AC50 (Cytochrome P450 2C9): 25.1 µM (inconclusive)

CN1CCN(S(=O)(=O)c2cccc(C(=O)NCCC3=CCCCC3)c2)CC1
EC50 [1]: > 195 µM (not active)

Cc1cc(-c2nc3ncccc3o2)ccc1NC(=S)NC(=O)C(C)C
EC50 [2]: > 260 µM (inactive)

CCOc1ccc(-n2ccnc2SCC(=O)Nc2nnc(C)s2)cc1
AC50 (Cytochrome P450 1A2): 25.1 µM (inconclusive)
AC50 (Cytochrome P450 2C9): 11.2 µM (inconclusive)

CC1(C)CC(=O)C2=C(C1)N(c1ccc(F)cc1)C(N)=C(C#N)C2c1cccs1 (stereo not given)
AC50 (Cytochrome P450 2C9): 10 µM (inconclusive)
AC50 (Cytochrome P450 2C19; read-out: AC50): 39.8 µM (inconclusive)

CSc1ccc(C(=O)C2CCCN(Cc3cccnc3)C2)cc1 (stereo not given)
EC50 [2]: > 260 µM (inactive)

O=C(Cn1cnc2c(oc3ccccc32)c1=O)c1ccccc1
EC50 [3]: 29.6 µM (active)
EC50 (H4): > 120 µM (not active)
EC50 [4]: 104 µM (active)

CC(NC(=O)c1ccc(C(C)(C)C)cc1)C(c1cccs1)N1CCOCC1 (stereo not given)
EC50 [2]: > 260 µM (inactive)

O=P(Nc1c(Cl)cccc1Cl)(c1ccccc1)c1nc2c(s1)CCCC2 (stereo not given)
AC50 (Cytochrome P450 2C9): 17.8 µM (inconclusive)
AC50 (Cytochrome P450 2C19; read-out: AC50): 20 µM (inconclusive)

C/C(CC(=O)Nc1cc(C)cc(C)c1)=N\NC(=O)c1ccccn1
EC50 [3]: > 120 µM (not active)
EC50 (H4): 42.2 µM (active)
EC50 [4]: > 120 µM (not active)

CCOC(=O)N1CCN(C(=O)CNS(=O)(=O)c2cccs2)CC1
AC50 (Cytochrome P450 3A4): 14.1 µM (inconclusive)
AC50 (Cytochrome P450 2C9): 3.98 µM (inconclusive)

O=C(c1ccncc1)N1CCC2(CC1)CCN(c1ccccc1)CC2
AC50 (Cytochrome P450 2C19; read-out: AC50): 39.8 µM (inconclusive)

CC1(C)CC(=O)C=C(Nc2ccc(Br)cc2F)C1
EC50 [1]: > 195 µM (not active)

CS(=O)(=O)N1CCCC(C(=O)N2CCc3ccccc3C2)C1 (stereo not given)
AC50 (Cytochrome P450 1A2): 25.1 µM (inconclusive)
AC50 (Cytochrome P450 3A4): 17.8 µM (inconclusive)
AC50 (Cytochrome P450 2C19; read-out: AC50): 35.5 µM (inconclusive)

CC(C)c1cccc2nc3c(c([Si](C)(C)C(C)(C)C)c12)Cn1c-3cccc1=O
AC50 (Cytochrome P450 1A2): 25.1 µM (inconclusive)
AC50 (Cytochrome P450 2C9): 39.8 µM (inconclusive)

COc1ccc(NCc2nnc(SCC(=O)c3ccc(OC)cc3)n2C)cc1
EC50 [3]: > 120 µM (not active)
EC50 (H4): > 120 µM (not active)
EC50 [4]: > 120 µM (not active)

CC(C)Sc1nc(NCc2ccco2)c2c3c(sc2n1)COC(C)(C)C3
EC50 [3]: 17.2 µM (active)
EC50 (H4): 8.39 µM (active)
EC50 [4]: 14.6 µM (active)

CCCN(CCC)CCCNC(=O)C[S+]([O-])Cc1nc(-c2ccc(OC)c(OC)c2)oc1C (stereo not given)
EC50 [2]: > 260 µM (inactive)
AC50 (Cytochrome P450 1A2): 3.16 µM (inconclusive)
AC50 (Cytochrome P450 3A4): 7.94 µM (inconclusive)
AC50 (Cytochrome P450 2C9): 39.8 µM (inconclusive)

Cc1cc(C)c(NC(=O)CSc2nnc(-c3ccncc3)n2Cc2ccco2)c(Cl)c1
EC50 [1]: > 195 µM (not active)

N#CC1=C(N)N2C(=C(C#N)C13CCCCC3)SC1CCCCC12O (stereo not given)
EC50 [2]: > 260 µM (inactive)

CCN(CC)P(=O)(NC(=O)c1cccn1C)N(CC)CC
EC50 [1]: > 195 µM (not active)

COc1ccc(-c2nc(C#N)c(N3CCCCC3)o2)cc1
EC50 [2]: > 260 µM (inactive)

O=C(O)c1cc(S(=O)(=O)N(Cc2ccccc2)c2ccccc2Cl)ccc1Cl
EC50 [1]: > 195 µM (not active)

CC(C)Cc1ccc(C#N)c(SCC(N)=O)n1
EC50 [1]: > 195 µM (not active)

Cc1ccc2nsnc2c1S(=O)(=O)N(CCO)Cc1cc2cc3c(cc2nc1O)OCCO3
EC50 [3]: 8.99 µM (active)
EC50 (H4): 10.4 µM (active)
EC50 [4]: 14.2 µM (active)

O=C(CCCc1ccccc1)N1CCN(C2CCCCC2)CC1
EC50 [3]: 13.7 µM (active)
EC50 (H4): 42.8 µM (active)
EC50 [4]: 13.5 µM (active)

COc1ccc(C(=O)NC(C)c2cc(OC)c(OC)cc2Br)cc1 (stereo not given)
AC50 (Cytochrome P450 2C19; read-out: AC50): 39.8 µM (inconclusive)

CCOc1ccc(N2C(=O)CN=C2Nc2ccccc2F)cc1
AC50 (Cytochrome P450 1A2): 15.8 µM (inconclusive)
AC50 (Cytochrome P450 2C19; read-out: AC50): 25.1 µM (inconclusive)

COc1ccccc1CNc1cc(-c2cccc(C#N)c2)ncn1
AC50 (Cytochrome P450 3A4): 25.1 µM (inconclusive)
AC50 (Cytochrome P450 2C19; read-out: AC50): 6.31 µM (inconclusive)

CC1(C)O[C@@H]2C[C@H]3[C@H]4C[C@H](F)C5=CC(=O)C=C[C@@]5(C)[C@@H]4[C@H](O)C[C@]3(C)[C@]2(C(=O)CO)O1
AC50 (Cytochrome P450 3A4): 12.6 µM (inconclusive)
AC50 (Cytochrome P450 2C19): inconclusive

O=C(CSCc1cccc(Cl)c1)N/N=C/c1ccc(OCC(=O)N2CCCCC2)cc1
AC50 (Cytochrome P450 1A2): 20 µM (inconclusive)
AC50 (Cytochrome P450 2C9): 22.4 µM (inconclusive)

COCCn1c(=O)c(-c2cccc(C#N)c2)nc2cnc(OCc3ccccc3)nc21
AC50 (Cytochrome P450 1A2): 12.6 µM (inconclusive)
AC50 (Cytochrome P450 2C19): inconclusive

CC(C)CNC(=O)c1noc2c1CCCC2
EC50 [1]: > 195 µM (not active)

CCc1cccc(CC)c1NC(=O)CN(CC(=O)O)CC(=O)O [ETIFENIN]
AC50 (Cytochrome P450 2C19): inconclusive
